Experimental data as given in PubChem BioAssay (NCI).
Several values for one entry are separate records, joined by “and”; a condition that tells them apart may be missing. Equal entries are not always repeated.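 A five-concentration, 48-hour dose response in 96-well plates underlies each endpoint, interpolated linearly between surrounding concentrations. GI50 = concentration required for 50% inhibition of growth. Definition used: TGI = concentration required for complete inhibition of growth.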

system: MDA-MB-468 breast; assay: growth of human tumour cells (NCI), 48 h

| Structure (SMILES) | GI50 | TGI |
| --- | --- | --- |
| C#CC#CC#CC#CC#CC#CC#CC#CC[C@@H]1OC[C@@H](COC(=O)O[C@@H](C(=O)O[C@H]2C[C@@]3(O)[C@@H](OC(=O)c4ccccc4)[C@@H]4[C@]5(OC(C)=O)CO[C@@H]5C[C@H](O)[C@@]4(C)C(=O)[C@H](OC(C)=O)C(=C2C)C3(C)C)[C@@H](NC(=O)c2ccccc2)c2ccccc2)O1 | 108 nM | 560 nM |
| Cc1cc(Nc2ccc(Cl)cc2)nc(NCCCNc2ccnc3cc(Cl)ccc23)n1 | 1610 nM | 3180 nM |
| COc1ccc(OCC(O)CN2CCN(c3ccc(Cl)cc3)CC2)cc1 (stereo not drawn) | 8930 nM | > 100000 nM |
| NC(N)=N/N=C(/c1ccccc1)c1ccccc1F |  | 4940 nM |
| Clc1ccc2c(NCCCN3CCN(c4nc(N5CCOCC5)nc5ccccc45)CC3)ccnc2c1 | 1830 nM | 3660 nM |
| COc1ccc(/C=C\c2cc(OC)c(OC)c(OC)c2)c(NS(=O)(=O)c2ccc(C(C)(C)C)cc2)c1O | 304 nM | 22700 nM |
| O=C(c1ccccc1)C(Br)C(Br)c1ccccc1 (stereo not drawn) | 2070 nM | 4650 nM |
| CNCc1ccc(-c2[nH]c3cc(F)cc4c3c2CCNC4=O)cc1 | 10800 nM | 25200 nM |
| COc1cccc(C2C(C#N)=C(N)Oc3cc4c(cc32)OCO4)c1 (stereo not drawn) | 24.4 nM | 665 nM |
| CC1=C(CNO)C2=C(C)C3(CC3)[C@@](C)(O)C(=O)C2=C1 | 319 nM | 920 nM |
| CCSc1ncc(Br)c(Sc2nc(N)nc3nc[nH]c23)n1 | 1720 nM | 7810 nM |
| COc1ccc(Cc2nc3cc(OC)c(OC)cc3c(=O)[nH]2)cc1 | 3320 nM | 17100 nM |
| COc1ccc(/C(C)=C(\c2ccc(Cl)cc2)c2ccc(OCCN3CCCCCC3)cc2)cc1F | 2650 nM | 5890 nM |
| C#Cc1cccc(NC(=O)C2CCCN(C(=O)CCl)C2)c1 (stereo not drawn) | > 82500 nM | > 82500 nM |
| O=C(OC[C@@H]1CO1)c1cccc2c(=O)c3ccccc3[nH]c12 | 883 nM | 2790 nM |
| COc1ccc(-c2cc(-c3ccccc3)nc(NCCNc3ccnc4cc(Cl)ccc34)n2)cc1 | 300 nM | 1210 nM |
| CCN(CC)CCNc1ccc([N+](=O)[O-])c2sc3cc(Cl)ccc3c(=O)c12 | 17300 nM | 61600 nM |
| COC(=O)c1ccc2[nH]c(O)c(C(=Nc3ccc(N(C)C(=O)CN4CCN(C)CC4)cc3)c3ccccc3)c2c1 | 1280 nM | 2990 nM |

| Structure (SMILES) | GI50 | TGI |
| --- | --- | --- |
| CN(C)c1ccc(N=C2C=CC(=C(C#N)C#N)c3ccccc32)cc1 | 393 nM | 2350 nM |
| COc1cc(/C=C\c2cc(OC)c(OC)c(OC)c2)cc(NS(=O)(=O)c2ccc(Cl)cc2)c1OC | 271 nM | 19400 nM |
| COc1cc(OC)cc(-c2ccc(-c3ccc(C(=N)N)cn3)s2)c1 | 1720 nM | 3320 nM |
| N#CCC1(n2cc(-c3ncnc4[nH]ccc34)cn2)CN(C2CCN(C(=O)c3ccnc(C(F)(F)F)c3F)CC2)C1 | 44200 nM | > 100000 nM |
| CC1(C)CC[C@]2(C(=O)O)CC[C@]3(C)C(=CC[C@@H]4[C@@]5(C)C/C(=C/c6ccco6)C(=O)C(C)(C)[C@@H]5CC[C@]43C)[C@@H]2C1 | 3290 nM | 30900 nM |
| CC1=C2[C@@H](CC1)[C@]1(C)O[C@@](C3CC3)(C[C@H]1OC(=O)CO)[C@H]2OC(=O)/C=C/c1ccccc1 | 14600 nM | 30600 nM |
| Cc1ccnc(Nc2ccc([N+](=O)[O-])c(NCCN3CCOCC3)n2)c1 | 18.5 nM and 27.3 nM |  |
| NC(=O)c1ncn(C2OC(CO)C(O)C2O)c1N (stereo not drawn) | 75600 nM | > 100000 nM |
| CCN1CCN(c2nc(NNC(=O)c3ccccc3)nc(N3CCN(C(c4ccccc4)c4ccccc4)CC3)n2)CC1 | 1940 nM | 4690 nM |
| CCOc1ccc(Nc2nc(-c3c(C)nc4ncccn34)cs2)cc1 | 303 nM | 15000 nM |
| N#CC(NC(=O)CCl)=C(Cl)Cl | 1330 nM | 3480 nM |
| CNCc1cccc2c1OCCOCCOCCC(C)S(=O)(=O)c1ccc(cc1)-c1cnc(N)c(n1)C(=O)N2 (stereo not drawn) | 1290 nM | 3710 nM |
| O=C(N/N=C/c1ccc(F)cc1)c1ccc(C(F)(F)F)nc1Nc1cccc(C(F)(F)F)c1 | 327 nM | 1510 nM |
| Cn1ccnc1C(=O)/C=C/c1ccc(C(=O)Nc2c(F)c(F)c(F)c(F)c2F)cc1 | 1720 nM | 4330 nM |
| Nc1nc(=S)c2[nH]cnc2[nH]1 | 150 nM and 1040 nM | 1230 nM and 8930 nM |
| COc1ccc(/C=C/C(C)=N/OCC(=O)Nc2ccc(Cl)cc2)cc1 | 2520 nM | 8340 nM |
| N/C(=N\C(N)=N\c1nc2ccccc2s1)c1cnccn1 | 2470 nM | 6070 nM |
